Test results from patent publication US6482921B1, “Uridyl peptide antibiotic (UPA) derivatives, their synthesis and use” (Essential Therapeutics, Inc., priority 1999, dated 2002).
Values after ≈ are worked out from the molar mass of the structure shown.

Assays:
Type in all cases: cell-based
[1] = test system: Escherichia Coli MC 4100 AcrAB UPA3r; assay: MIC broth microdilution, E. coli MC 4100 AcrAB UPA3r (ΔAcrAB, UPA resistant); details: E. coli AcrAB UPA3^r
[2] = test system: Pseudomonas aeruginosa PAM 1323; assay: MIC broth microdilution, P. aeruginosa PAM 1323 (medium level UPA resistance)
Escherichia Coli MC 4100 = assay: MIC broth microdilution, E. coli MC 4100 (wild type); details: E. coli MC 4100
[3] = test system: Staphylococcus aureus ATCC 29213; assay: MIC broth microdilution, S. aureus ATCC 29213 (wild type); details: S. aureus ATCC 29213
[4] = test system: Pseudomonas aeruginosa PAM 1020; assay: MIC broth microdilution, P. aeruginosa PAM 1020 (wild type); details: P. aeruginosa PAM 1020
[5] = test system: Pasteurella multocida pm002; assay: MIC broth microdilution, P. multocida pm002 (wild type)
[6] = test system: Staphylococcus aureus 8325-4; assay: MIC broth microdilution, S. aureus 8325-4 (wild type); details: S. aureus 8325-4
[7] = test system: Escherichia Coli MC 4100 AcrAB; assay: MIC broth microdilution, E. coli MC 4100 AcrAB (ΔAcrAB); details: E. coli AcrAB
[8] = test system: Pseudomonas aeruginosa PAM 1135; assay: MIC broth microdilution, P. aeruginosa PAM 1135 (high level UPA resistance); details: P. aeruginosa PAM 1135 UPA1^r
[9] = test system: Pseudomonas aeruginosa PAM 1154; assay: MIC broth microdilution, P. aeruginosa PAM 1154 (OprM::Hg); details: P. aeruginosa PAM 1154 OprM::Hg

Row | Compound | MIC (μg/ml) Broth microdilution [1] | MIC (μg/ml) Broth microdilution [2] | MIC (μg/ml) Broth microdilution (Escherichia Coli MC 4100) | MIC (μg/ml) Broth microdilution [3] | MIC (μg/ml) Broth microdilution [4] | MIC (μg/ml) Broth microdilution [5] | MIC (μg/ml) Broth microdilution [6] | MIC (μg/ml) Broth microdilution [7] | MIC (μg/ml) Broth microdilution [8] | MIC (μg/ml) Broth microdilution [9]
1 | C[C@H](N)C(=O)N(C)[C@@H](C)[C@H](NC(=O)[C@H](Cc1ccc(C(F)(F)F)cc1)NC(=O)N[C@@H](Cc1ccc(O)cc1)C(=O)O)C(=O)NC[C@H]1C[C@@H](O)[C@H](n2ccc(=O)[nH]c2=O)O1 [Compound 145, 1-[5′-[(2S,3S)-N^3-L-Alanyl-N^2-[N-[[(1S)-1-carboxy-4-hydroxyphenethyl]carbamoyl]-L-4-(trifluoromethyl)phenylalanyl]-N^3-methyl-2,3-diaminobutyramido]-3′,5′-dideoxy-α-L-arabinofuranosyl]uracil] | 128 µg/mL (≈ 153 µM) | >512 µg/mL | 512 µg/mL (≈ 613 µM) | >512 µg/mL | 256 µg/mL (≈ 307 µM) | 512 µg/mL (≈ 613 µM) | >512 µg/mL | 4 µg/mL (≈ 4.79 µM) | >512 µg/mL | 32 µg/mL (≈ 38.3 µM)
2 | CC(N)C(=O)N(C)C(C)C(NC(=O)C(CCCCN)NC(=O)NC(Cc1c[nH]c2ccccc12)C(=O)O)C(=O)NCC1CC(O)C(n2ccc(=O)[nH]c2=O)O1 [Compound 148, 1-[5′-[(2S,3S)-N^3-L-Alanyl-N^2-[N-[[(1S)-1-carboxy-2-indol-3-ylethyl]carbamoyl]-L-lysinyl]-N^3-methyl-2,3-diaminobutyramido]-3′,5′-dideoxy-α-L-arabinofuranosyl]uracil] | >512 µg/mL | >512 µg/mL | >512 µg/mL | >512 µg/mL | 128 µg/mL (≈ 166 µM) | >512 µg/mL | >512 µg/mL | >512 µg/mL | >512 µg/mL | 8 µg/mL (≈ 10.4 µM)
3 | C[C@H](N)C(=O)N(C)[C@@H](C)[C@H](NC(=O)[C@H](Cc1ccccc1)NC(=O)N[C@@H](Cc1c[nH]cn1)C(=O)O)C(=O)NC[C@H]1C[C@@H](O)[C@H](n2ccc(=O)[nH]c2=O)O1 [Compound 149] | 64 µg/mL (≈ 86.4 µM) | >512 µg/mL | 512 µg/mL (≈ 691 µM) | >512 µg/mL | 512 µg/mL (≈ 691 µM) | 256 µg/mL (≈ 346 µM) | >512 µg/mL | 16 µg/mL (≈ 21.6 µM) | >512 µg/mL | 8 µg/mL (≈ 10.8 µM)
4 | C[C@@H]([C@H](NC(=O)[C@H](Cc1ccccc1)NC(=O)N[C@@H](Cc1ccc(O)cc1)C(=O)O)C(=O)NC[C@H]1C[C@@H](O)[C@H](n2ccc(=O)[nH]c2=O)O1)N(C)C(=O)[C@@H](N)COCc1ccccc1 [Compound 150, 1-[5′-[(2S,3S)-N^3-(L-O-Benzylserinyl)-N^2-[N-[[(1S)-1-carboxy-4-hydroxyphenethyl]carbamoyl]-L-phenylalanyl]-N^3-methyl-2,3-diaminobutyramido]-3′,5′-dideoxy-α-L-arabinofuranosyl]uracil] | 512 µg/mL (≈ 587 µM) | 256 µg/mL (≈ 293 µM) | 512 µg/mL (≈ 587 µM) | >512 µg/mL | 256 µg/mL (≈ 293 µM) | 512 µg/mL (≈ 587 µM) | >512 µg/mL | 8 µg/mL (≈ 9.16 µM) | 256 µg/mL (≈ 293 µM) | 64 µg/mL (≈ 73.3 µM)
5 | CN[C@@H](C)[C@H](NC(=O)[C@H](Cc1ccccc1)NC(=O)N[C@@H](Cc1c[nH]c2ccccc12)C(=O)O)C(=O)NC[C@H]1C[C@@H](O)[C@H](n2ccc(=O)[nH]c2=O)O1 [Compound 151, 1-[5′-[(2S,3S)-N^2-[N-[[(1S)-1-Carboxy-2-indol-3-ylethyl]carbamoyl]-L-phenylalanyl]-N^3-methyl-2,3-diaminobutyramido]-3′,5′-dideoxy-α-L-arabinofuranosyl]uracil] | 128 µg/mL (≈ 178 µM) | 256 µg/mL (≈ 356 µM) | 512 µg/mL (≈ 712 µM) | >512 µg/mL | 256 µg/mL (≈ 356 µM) | 256 µg/mL (≈ 356 µM) | >512 µg/mL | 4 µg/mL (≈ 5.57 µM) | 256 µg/mL (≈ 356 µM) | 32 µg/mL (≈ 44.5 µM)
6 | C[C@H](N)C(=O)N(C)[C@@H](C)[C@H](NC(=O)[C@H](Cc1ccc2ccccc2c1)NC(=O)N[C@@H](Cc1ccc(O)cc1)C(=O)O)C(=O)NC[C@H]1C[C@@H](O)[C@H](n2ccc(=O)[nH]c2=O)O1 [Compound 152, 1-[5′-[(2S,3S)-N^3-L-Alanyl-N^2-[N-[[(1S)-1-carboxy-4-hydroxyphenethyl)carbamoyl]-L-3-(2-naphthyl)alanyl]-N^3-methyl-2,3-diaminobutyramido]-3′,5′-dideoxy-α-L-arabinofuranosyl]uracil] | 64 µg/mL (≈ 78.3 µM) | >512 µg/mL | 256 µg/mL (≈ 313 µM) | >512 µg/mL | 256 µg/mL (≈ 313 µM) | >512 µg/mL | >512 µg/mL | 2 µg/mL (≈ 2.45 µM) | >512 µg/mL | 64 µg/mL (≈ 78.3 µM)
7 | C[C@H](N)C(=O)N(C)[C@@H](C)[C@H](NC(=O)[C@H](Cc1ccc2ccccc2c1)NC(=O)N[C@@H](Cc1c[nH]c2ccccc12)C(=O)O)C(=O)NC[C@H]1C[C@@H](O)[C@H](n2ccc(=O)[nH]c2=O)O1 [Compound 153] | 128 µg/mL (≈ 152 µM) | >512 µg/mL | 512 µg/mL (≈ 610 µM) | 512 µg/mL (≈ 610 µM) | 128 µg/mL (≈ 152 µM) | 64 µg/mL (≈ 76.2 µM) | 256 µg/mL (≈ 305 µM) | 2 µg/mL (≈ 2.38 µM) | >512 µg/mL | 16 µg/mL (≈ 19 µM)
8 | CC(C)CC(NC(=O)NC(Cc1ccc(O)cc1)C(=O)O)C(=O)NC(C(=O)NCC1CC(O)C(n2ccc(=O)[nH]c2=O)O1)C(C)N(C)C(=O)C(C)N [Compound 161, 1-[5′-[(2S,3S)-N^3-L-Alanyl-N^2-[N-[[(1S)-1-carboxy-4-hydroxyphenethyl)carbamoyl]-L-leucyl]-N^3-methyl-2,3-diaminobutyramido]-3′,5′-dideoxy-α-L-arabinofuranosyl]uracil] | 256 µg/mL (≈ 349 µM) | 256 µg/mL (≈ 349 µM) | >512 µg/mL | >512 µg/mL | 16 µg/mL (≈ 21.8 µM) | 512 µg/mL (≈ 699 µM) | >512 µg/mL | 32 µg/mL (≈ 43.7 µM) | >512 µg/mL | 8 µg/mL (≈ 10.9 µM)
9 | CSCCC(N)C(=O)N(C)C(C)C(NC(=O)C(CCSC)NC(=O)NC(Cc1c[nH]c2ccccc12)C(=O)O)C(=O)NCC1CC(O)C(n2ccc(=O)[nH]c2=O)O1 [Compound 162, 1-[5′-[(2S,3S)-N^2-[N-[[(1S)-1-Carboxy-2-indol-3-ylethyl]carbamoyl]-L-methionyl]-N^3-L-methionyl-N^3-methyl-2,3-diaminobutyramido]-3′,5′-dideoxy-α-L-arabinofuranosyl]uracil] | 512 µg/mL (≈ 614 µM) | 256 µg/mL (≈ 307 µM) | 512 µg/mL (≈ 614 µM) | >512 µg/mL | 64 µg/mL (≈ 76.7 µM) | 512 µg/mL (≈ 614 µM) | >512 µg/mL | 16 µg/mL (≈ 19.2 µM) | 256 µg/mL (≈ 307 µM) | 16 µg/mL (≈ 19.2 µM)
10 | CC(C(NC(=O)C(Cc1ccccc1)NC(=O)NC(Cc1c[nH]c2ccccc12)C(=O)O)C(=O)NCC1CC(O)C(n2ccc(=O)[nH]c2=O)O1)N(C)C(=O)C(N)Cc1ccc(O)cc1 [Compound 163, 1-[5′-[(2S,3S)-N^2-[N-[[(1S)-1-Carboxy-2-indol-3-ylethyl]carbamoyl]-L-phenylalanyl]-N^3-L-tyrosyl-N^3-methyl-2,3-diaminobutyramido]-3′,5′-dideoxy-α-L-arabinofuranosyl]uracil] | 512 µg/mL (≈ 581 µM) | 256 µg/mL (≈ 290 µM) | 512 µg/mL (≈ 581 µM) | >512 µg/mL | 16 µg/mL (≈ 18.1 µM) | 256 µg/mL (≈ 290 µM) | >512 µg/mL | 4 µg/mL (≈ 4.54 µM) | 256 µg/mL (≈ 290 µM) | 16 µg/mL (≈ 18.1 µM)
11 | CN[C@@H](C)[C@H](NC(=O)[C@H](C)NC(=O)N[C@@H](Cc1c[nH]c2ccccc12)C(=O)O)C(=O)NC[C@H]1C[C@@H](O)[C@H](n2ccc(=O)[nH]c2=O)O1 [Compound 165, 1-[5′-[(2S,3S)-N^2-[N-[[(1S)-1-Carboxy-2-indol-3-ylethyl]carbamoyl]-L-alanyl]-N^3-methyl-2,3-diaminobutyramido]-3′,5′-dideoxy-α-L-arabinofuranosyl]uracil] | 128 µg/mL (≈ 199 µM) | >512 µg/mL | >512 µg/mL | >512 µg/mL | >512 µg/mL | 256 µg/mL (≈ 398 µM) | >512 µg/mL | 4 µg/mL (≈ 6.22 µM) | >512 µg/mL | 128 µg/mL (≈ 199 µM)
